Reference: EP4670722A1, “PROPHYLACTIC OR AMELIORATING AGENT FOR CELL AGING” (Kyowa Pharma Chemical Co., Ltd., priority 2023, dated 2024)

Tests used:
[1] = test system: Human normal epidermal keratinocytes (HaCaT); test: Cell viability (Cell Counting Kit-8) of tunicamycin-treated epidermal keratinocytes; assay type: cell-based; conditions: tunicamycin 0.1 µg/mL, 50 µg/mL to 200 µg/mL, 24 hours, effect increased as content increased, Fig. 5
Protocol: Human normal epidermal keratinocytes (HaCaT) were cultured using DMEM containing 10% FBS. The cultured cells were collected by trypsin treatment. The collected cells were seeded in a 96-well plate, and when they reached 100% confluence, tunicamycin, an agent that induces endoplasmic reticulum stress, was added at 0.1 µg/mL, and the cells were cultured for 24 hours. A group was also prepared in which FBS-free DMEM medium containing a test sample (2'-fucosyllactose) at 50 µg/mL, 100 µg/mL, or 200 µg/mL was added simultaneously with tunicamycin, and cultured for 24 hours. After completion of culture, the viability of human normal epidermal keratinocytes was evaluated using Cell Counting Kit-8 (manufactured by Dojindo Laboratories). The measurement wavelength (As) was set to 450 nm, and the reference wavelength was set to 620 nm.
Human normal epidermal keratinocytes were cultured and the absorbance at a measurement wavelength of 450 nm was measured in the same manner as in Example 4-1, except that tunicamycin and the test sample were not added. The obtained absorbance was designated as Ab, and the cell viability represented by the above formula (1) was determined.

[2] = test system: laminin; test: Laminin secretion amount (ELISA) of tunicamycin-treated dermal fibroblasts; assay type: cell-based, Human; conditions: NB1RGB PDL of 30 or less, tunicamycin 0.3 µg/mL, 50 µg/mL to 200 µg/mL, 24 hours; recovery increased as content increased; Fig. 8
Protocol: Human normal dermal fibroblasts (NB1RGB) with a PDL of 30 or less were cultured using DMEM containing 10% FBS. The cultured cells were collected by trypsin treatment. The collected cells were seeded in a 24-well plate, and when they reached 100% confluence, tunicamycin at 0.3 µg/mL was added, and the culture supernatant was collected after 24 hours. A group was also prepared in which FBS-free DMEM medium containing the test sample (2'-fucosyllactose) at 50 µg/mL, 100 µg/mL, or 200 µg/mL was added simultaneously with tunicamycin, and the culture supernatant was collected after 24 hours. The culture supernatant was centrifuged, and the resulting supernatant was used as a sample. […] This total cell protein concentration was measured by the Bradford assay.
Human normal dermal fibroblasts with a PDL of 30 or less were cultured in the same manner as in Example 7-1, except that tunicamycin and the test sample were not added, and the culture supernatant was collected. […] This total cell protein concentration was measured by the Bradford assay.
An Enzyme-Linked Immunosorbent Assay (ELISA) method was performed using an antibody against laminin to measure the amount of laminin in the samples. […] After stopping the reaction, the absorbance at a measurement wavelength of 450 nm was measured using a microplate reader. […]

[3] = test system: GLS1; test: GLS1 expression analysis (ELISA) in HUVEC after high glucose treatment; assay type: cell-based; conditions: human umbilical vein endothelial cells (HUVEC), 50 µg/mL to 1000 µg/mL, 24 hours; effect increased as content increased; Fig. 12
Protocol: Human umbilical vein endothelial cells (HUVEC) were cultured in DMEM + 10% FBS + 5 mM glucose (normal medium). The cultured cells were collected by trypsin treatment. The collected cells were seeded in a 10 cm dish and cultured for 24 hours in a 37°C, 5% CO2 incubator. Thereafter, a treatment of exposing the cells to DMEM + 10% FBS + 30 mM glucose (high glucose medium) for 10 hours and to normal medium for 14 hours was performed for 7 days. After 7 days, normal medium containing the test sample (2'-FL and lactose) at 50 µg/mL, 200 µg/mL, or 1000 µg/mL was added, and cultured for 24 hours in a 37°C, 5% CO2 incubator. The culture supernatant was removed, the cells were washed twice with PBS, and 0.20 mL of RIPA buffer was added to extract total protein. Protein in each protein extract was quantified by the Bradford assay.
Protein extracts were collected in the same manner as in [Example 10-1 B. Human gastric undifferentiated carcinoma cells (KKLS)], [Example 10-1 C. Mouse microglial cells (BV2)], [Example 10-1 D. Human gingival fibroblasts (Gin-1)], and [Example 10-1 E. Human umbilical vein endothelial cells (HUVEC)], respectively, except that a medium same as the above-mentioned medium but not containing the test sample was used instead of the medium containing the test sample, and protein in each protein extract was quantified by the Bradford assay. […]

`C[C@@H]1O[C@@H](O[C@H]2[C@H](O[C@H]3[C@H](O)[C@@H](O)C(O)O[C@@H]3CO)O[C@H](CO)[C@H](O)[C@@H]2O)[C@@H](O)[C@H](O)[C@@H]1O` (stereo partly drawn) [2'-FL, 2'-fucosyllactose] was tested, and the “endoplasmic reticulum stress (cell viability)” value [1] was “ameliorated endoplasmic reticulum stress”, the laminin secretion [2] was “restored laminin secretion” and the GLS1 expression [3] was “suppressed GLS1 expression”.
